In brackets after ≈: the same amount, converted by molar mass.
Experiments:
[1] = tested on: guinea pig tracheal chain preparations; test: spontaneous tone of guinea pig tracheal chain (ring) preparation, relaxant effect; conditions: for absolute separation ratio: atrial ED25 versus tracheal ED50, guinea pig in vitro preparations
Source text: (§1) Two in vitro test systems used for determining selective β-stimulant activity are: (1) effect on spontaneous tone of guinea pig tracheal chain preparations as a measure of β-stimulant (direct relaxant) effect on airway smooth muscle, and (2) effect on rate of spontaneously beating right atria of the guinea pig as a measure of β-stimulant effect on cardiac muscle.

[2] = tested on: right atria of the guinea pig; test: rate of spontaneously beating guinea pig right atria; conditions: Cavia porcellus; in vitro; β-stimulant effect on cardiac muscle; read-out: ED25, increasing the rate of contraction of guinea pig right atria
Source text: as §1

EC50 ([1]; Cavia porcellus, in vitro, β-stimulant (direct relaxant) effect on airway smooth muscle, read-out: ED50, relaxes the spontaneous tone of guinea pig tracheal ring preparation)	SMILES	absolute separation ratio [1]	EC25 [2]	improvement of absolute separation ratio compared to d,l isoproterenol ([1]; versus d,l isoproterenol in similar in vitro preparations)
–	CC(C)NCC(O)c1ccc(O)c(O)c1 (racemic) [d,l isoproterenol, reference compound]	0.5	–	–
0.00414 µg/mL (≈ 0.00861 µM)	Oc1ccc(OCC(O)CNCCCCCCNCC(O)COc2ccc(O)c(O)c2)cc1O (centres unmarked) [N,N'-bis[3,4-dihydroxyphenoxy)-2-hydroxypropyl]-1,6-diaminohexane]	7	0.029 µg/mL (≈ 0.0603 µM)	14 fold

— patent US4013777A, “Bis-phenoxypropanolamines” (SmithKline Corporation, priority 1975, dated 1977)
